Here are results for two molecules from PMC5702947, “A Study on Cytotoxic and Apoptotic Potential of a Triterpenoid Saponin (3-O-α-L-Arabinosyl Oleanolic Acid) Isolated from Schumacheria castaneifolia Vahl in Human Non-Small-Cell Lung Cancer (NCI-H292) Cells” (BioMed Research International, 2017).

Broadly, the IC50 is the concentration that gives 50% inhibition.

Molecules are shown by their SMILES.

In test [1] the test system is NCI-H292 cells. Nature of the test: Sulforhodamine B (SRB) cytotoxicity assay in NCI-H292 cells. The format is cell-based. Particulars: Homo sapiens. On the procedure: (§1) Sulphorhodamine B (SRB) assay was used to dertmine cytotoxic effects of the compound (3-O-L-AO) in NCI-H292 and MRC-5 cells. Cells (5 × 10^3/well) were seeded in 96-well tissue culture plates and incubated for 24 h. After 24 h incubation, cells were treated with 3-O-L-AO (0.78–25 μg/mL) and incubated for 24, 48, and 72 h. Paclitaxel (0.47–15 μg/mL) was used as the positive control. Cells were washed with PBS for three times and then fixed by adding 50% trichloroacetic acid (TCA) to each well followed by washing five times with tap water. After fixing, cells were stained with 0.4% SRB dye for 20 min followed by washing five times with 1% acetic acid. Tris-base (10 mM) was then added to each well and plates were kept on a plate shaker for 1 h at room temperature. The absorbance was measured using a microplate reader (Synergy HT, USA) at wavelength of 540 nm.

The subject of test [2] is MRC-5 cells. Nature of the test: Sulforhodamine B (SRB) cytotoxicity assay in MRC-5 cells. Particulars: Homo sapiens. The format is cell-based. As to the method: as §1
In general terms: In SRB staining, fixed cells bind dye roughly in proportion to their protein.

Test [3] has as its system NCI-H292 cells. The experiment in a line: Cytomorphological changes under phase-contrast microscope, NCI-H292 cells. It is filed as cell-based, human. Conditions: NCI-H292 cells, 1.5, 6.25 and 12.5 μg/mL, 24, 48, 72 h, phase-contrast images. An excerpt:
(§2) Morphological changes of lung cancer cells (NCI-H292) and normal fibroblasts (MRC-5) cells after exposure to 3-O-L-AO were captured using inverted phase-contrast microscope (Olympus CKX41, Japan).

The test system of test [4] is MRC-5 cells. The experiment in a line: Cytomorphological changes under phase-contrast microscope, MRC-5 cells. It is filed as cell-based, human. Conditions: MRC-5 cells, 1.5, 6.25 and 12.5 μg/mL, 24, 48, 72 h, phase-contrast images.
Excerpt: as §2

For test [5], the system named is NCI-H292 cells. The experiment in a line: AO/EB staining, apoptosis related morphology under fluorescence microscopy. It is filed as cell-based, human. Conditions: NCI-H292 cells, 2.5, 5 and 10 μg/mL, 24 h. On the procedure:
NCI-H292 lung cancer cells (2 × 10^4 cells/well) cultured on coverslips were treated with 3-O-L-AO (2.5, 5, and 10 μg/mL) for 24 h. After incubation, cells were washed with phosphate buffer saline (PBS) and fixed with 4% formaldehyde for 15 min. Fixed cells were again washed with PBS and stained with acridine orange/ethidium bromide as previously described by us. Stained cells were observed under a fluorescence microscope (Olympus, BX51TRF, Japan).

Test [6] deals with caspase 3/7. The experiment in a line: Caspase-Glo 3/7 activity assay in NCI-H292 cells. Conditions: NCI-H292 cells, 0.5, 1 and 2 μg/mL (all three doses), 24 h. The format is cell-based, human. As to the method:
Caspase 3/7 activity in NCI-H292 cells was measured using the Caspase-Glo 3/7 assay kit according to manufacturer's protocol. Prior to the assay, NCI-H292 cells were treated with three doses of 3-O-L-AO (0.5, 1, and 2 μg/mL) and incubated for 24 h.

Test [7] relates to p53 gene. The experiment in a line: Quantitative real-time PCR, p53 gene expression in NCI-H292 cells. It is filed as cell-based, human. Conditions: 24 h. As to the method: (§3) NCI-H292 cells (2 × 10^5 cells/mL) grown in T-25 tissue culture flasks were treated with 3-O-L-AO (1 and 2 μg/mL) and incubated for another 24 h. TRIzol reagent was used to extract RNA as described by Ediriweera et al., 2016 [13]. Extracted RNA (2 μg) was incubated with 50 ng of random primers and 13.5 μL of PCR water for 5 min at 70°C. cDNA synthesis was then carried out after mixing with a maxter mix containing 5 μL MMLV (Moloney Murine Leukemia Virus Reverse Transcriptase) reaction buffer, 5 μL 10 mM dNTP mix, 25 units of RNasin, and 200 units of MMLV RT enzyme, following incubation at 37°C for 60 min, in a total volume of 25 μL. Stratagene Mx3000P real-time PCR system (Agilent Technologies, CA, USA) was used to carry out real-time PCR. Primers used have been previously described. For real-time PCR, 2 μL of cDNA was mixed with Master Mix containing 0.5 μL of forward and reverses primers, 12.5 μL SYBR Green Master Mix (Eurogentec, Seraing, Liège, Belgium), and 9.5 μL PCR water. The thermal cycle programme set for real-time PCR include stage 1, 95°C for 10 min and stage two consisting of three steps: denaturation at 95°C for 30 s, annealing at 56°C for 1 min, and extension at 72°C for 30 s and stage 2 was repeated for 40 cycles. […] Gene expression was quantified using the method described by Livak and Schmittgen, 2001 [14].
(In general: In qPCR the cycle at which signal appears reflects the starting amount.)

Test [8] has as its system Bax gene. Nature of the test: Quantitative real-time PCR, Bax gene expression in NCI-H292 cells. It is filed as cell-based, human. Particulars: 1 and 2 μg/mL (both doses), 24 h. As to the method:
as §3

For test [9], the system named is survivin gene. Nature of the test: Quantitative real-time PCR, survivin gene expression in NCI-H292 cells. The format is cell-based, human. Conditions: 1 and 2 μg/mL (both doses), 24 h, downregulation not significant. On the procedure: as §3
The test system of test [10] is reactive oxygen species (ROS). The experiment in a line: Reactive oxygen species (ROS) level, NBT assay in NCI-H292 cells. The format is cell-based, human. Conditions: NCI-H292 cells, 0.5, 1 and 2 μg/mL (all three doses), 24 h, dose dependant. On the procedure:
(§4) Evaluation of oxidative stress markers (reactive oxygen species (ROS), glutathione-S-transferase (GST), and glutathione (GSH)) after exposure to 3-O-L-AO in NCI-H292 cells was determined as previously described by us.
NCI-H292 cells (20,000 cells/well) were plated in 96-well cell plates and incubated for 24 h. Following incubation, cells were treated with 3-O-L-AO (0.5, 1, and 2 μg/mL) and incubated for 24 h. Nitro Blue Tetrazolium (NBT) solution (1 mg/mL, 20 μL) was then added to each well and incubated for 1 h at 37°C. Blue formazan formed was then solubalized after adding 100 μL of dimethyl sulfoxide (DMSO) and the absorbance was read at 620 nm.

For test [11], the system named is glutathione (GSH). The experiment in a line: Glutathione (GSH) levels in NCI-H292 cells. It is filed as cell-based, human. Particulars: NCI-H292 cells, 0.5, 1 and 2 μg/mL (all three doses), 24 h, p < 0.0001. As to the method: as §4
NCI-H292 cells were (1 × 10^5 cells/well) exposed to 3-O-L-AO (0.5, 1, and 2 μg/mL) for 24 h. After incubation, cells were collected by trypsinization. Collected cell pellets were mixed with ice-cold KCl (2 mL) and 0.5 M EDTA (1 mL) and sonicated for […]. Cell lysate was then centrifuged at 10,000 g for 15 min to obtain a clear supernatant and it was kept on ice throughout the experiments. Supernatent (75 μL) was mixed with 75 μL of 5% sulfosalicylic acid, 20 μL of 4% DTNB [5,5-dithiobis-(2-nitrobenzoic acid)], and 30 μL of 0.1 M potassium phosphate buffer (pH 8.0) and incubated for 30 min. Absorbance was then recorded at 412 nm and glutathione levels were calculated as nM/mg of cell lysate protein with the help of a GSH standard curve.

Test [12] deals with glutathione-S-transferase (GST). Nature of the test: Glutathione-S-transferase (GST) activity in NCI-H292 cell lysates. The format is cell-based, human. Conditions: NCI-H292 cells, 0.5, 1 and 2 μg/mL (all three doses), 24 h, p < 0.05 to p < 0.0001. On the procedure: as §4
An aliquot of cell lysates prepared for GSH assays was used to analyse GST activity. Glutathione and CDNB (1-chloro-2,4-dinitrobenzene) were served as substrates in this assay. A mixture was prepared by mixing 490 μL of PBS (pH 6.5), 5 μL of CDNB (100 mM), and 5 μL of GSH (100 mM); 180 μL of this mixture was mixed with 20 μL of cell lysate and incubated for 5 min at 37°C. Absorbance was recoreded at 340 nm for 5 min (1-minute time intervals). Quantity of GST catalyzing the oxidation of 1 millimole of 1-chloro-2,4-dinitrobenzene per minute at 37°C was considerd as one unit of GST activity.

For test [13], the system named is Staphylococcus aureus. Details: method as in earlier work. Conditions: cited from earlier work.
Test [14] has as its system Escherichia coli. Details: method as in earlier work. Conditions: cited from earlier work.

Turning to `CC1(C)CCC2(C(=O)O)CCC3(C)C(=CCC4C5(C)CCC(OC6OCC(O)C(O)C6O)C(C)(C)C5CCC43C)C2C1` [3-O-L-AO, 3-O-α-L-arabinosyl oleanolic acid], the half-inhibitory concentration (IC50) in [1] (24 h incubation) was 4.33 µg/mL; in test [1] (48 h incubation), 2.69 µg/mL; in test [1] (72 h incubation), 1.5 µg/mL; in [2] (MRC5, 24 h incubation) it was 5.4 µg/mL; in [2] (MRC5, 48 h incubation), 4.59 µg/mL; in [2] (MRC5, 72 h incubation), 2.83 µg/mL. The “Cytomorphological changes of lung cancer cells” value in test [3] was “decreased cell volume and rounding up cells”. Further, the “Cytomorphological changes of normal lung fibroblast cells” value in test [4] was “decreased cell volume and rounding up cells”. Besides, the “Apoptotic induction (AO/EB staining)” value in [5] was “dose dependent apoptotic induction”. Further, the “Caspase 3/7 activity compared to untreated control” value in [6] is given as “Significant (p < 0.0001) increase”. For the same molecule, the p53 gene expression entry is “upregulation” in test [7] (1 μg/mL) and “significant (p < 0.05) upregulation” in test [7] (2 μg/mL). For the same molecule, in test [8], the Bax gene expression result is “Significant (p < 0.001 and p < 0.0001) upregulation”. The survivin gene expression entry in test [9] is recorded as “downregulation”. For the same molecule, in test [10], the “Reactive oxygen species (ROS) level” value was “significantly (p < 0.05 to p < 0.0001) increased”. In addition, the GSH levels result in test [11] is listed as “Significant reduction”. The “GST levels (activity)” value in test [12] is “increase”. Further, the “Antibacterial effects against Staphylococcus aureus” value in test [13] is recorded as “Moderate antibacterial effects”. Also, the “Antibacterial effects against Escherichia coli” value in test [14] is reported as “Moderate antibacterial effects”.

`CC(=O)O[C@H]1C(=O)[C@@]2(C)[C@H]([C@H](OC(=O)c3ccccc3)[C@]3(O)C[C@H](OC(=O)[C@H](O)[C@@H](NC(=O)c4ccccc4)c4ccccc4)C(C)=C1C3(C)C)[C@]1(OC(C)=O)CO[C@@H]1C[C@@H]2O` [Paclitaxel, reference compound]: the IC50 in test [1] (24 h incubation) stood at 8.37 µg/mL; in [1] (48 h incubation), 3.28 µg/mL; in [1] (72 h incubation), 1.59 µg/mL; in [2] (MRC5, 24 h incubation), 1.51 µg/mL; in test [2] (MRC5, 48 h incubation), 0.96 µg/mL; in test [2] (MRC5, 72 h incubation) it was 0.35 µg/mL.
